# From US20210137953A1, “Inhibitors of Mcl-1 and Akt Binding, Pharmaceutical Compositions, and Uses in Treating Cancer” (Emory University, priority 2019, published 2021)
# Entries after “also recorded” stand apart in the source; their conditions may differ.
# Assays:
# [1] = test system: NSCLC (H1299) xenografts; test: H1299 lung cancer xenografts in nude mice; format: in vivo
# Experimental: Nu/Nu nude mice with H1299 lung cancer xenografts were treated with increasing doses of PH-687 for 4 weeks. Tumor volume was measured once every 4 days. After 28 days, mice were sacrificed and the tumors were removed, photographed, and analyzed.
# (§1) To test the antitumor potency of PH-687 in vivo, nude mice with NSCLC (i.e., H1299) xenografts were treated with increasing doses (0, 30, 60, and 90 mg/kg/day) of PH-687 for 4 weeks.
# (§2) Six-week-old male nude mice were purchased from Harlan and housed under pathogen-free conditions. H1299 cells were subcutaneously implanted into mouse flanks. Tumor bearing mice were randomly grouped and tumors were allowed to grow to an average volume of 100 mm3 before treatment. Mice were treated with PH-687 through intraperitoneal injection (i.p) at the indicated dose. During treatment, tumor volumes were measured by caliper once every 4 days.
# Paraffin-embedded human lung tissue samples from 208 patients with NSCLC were obtained. Tissue microarray was constructed with replicate cores of tumor and adjacent normal lung. After deparaffinization, rehydration, inactivation of endogenous peroxidase, and antigen retrieval, IHC staining was performed. The following primary antibody dilutions were used: anti-Mcl-1 (1:300), anti-pAKT S473 (1:100), anti-pAKT T308 (1:100), anti-Ki67 (1:500), and anti-active caspase-3 (1:100). Ki67-positive cells and active caspase-3-positive cells in tumor tissues were scored. Percentage of positive cells was determined from three separate fields in each of three independent tumor samples. The semiquantitative evaluation of IHC staining of Mcl-1 and pAkt was carried out using an immunoscore based on both the percentage of stained cells and staining intensity.
# [2] = test system: Akt phosphorylation; test: growth factor-induced Akt phosphorylation in H1299 cells; format: cell-based, human; details: 2 mmol/L, 1 hour, EGF 100 ng/mL, IGF 10 ng/mL or insulin 1 mg/mL
# Experimental: To test whether Mcl-1 or PH-687 also affects Akt activation by growth factors such as EGF, IGF, or insulin, first, H1299 parental and H1299 Mcl-1^−/^− cells were treated with EGF (100 ng/mL), IGF (10 ng/mL), or insulin (1 mg/mL) for 1 hour, followed by analysis of Akt phosphorylation. […] Knockout of Mcl-1 blocked EGF, IGF, and insulin-induced Akt phosphorylation at S473 and T308. Second, H1299 cells were treated with EGF (100 ng/mL), IGF (10 ng/mL), or insulin (1 mg/mL) in the absence or presence of PH-687 (2 mmol/L) for 1 hour, followed by analysis of Akt phosphorylation. Results reveal that PH-687 inhibited EGF, IGF, and insulin-induced Akt phosphorylation at S473 and T308.
# [3] = molecular target: T1, Mcl-1/Akt complexes (Homo sapiens, UniProt P31749); test: Co-IP of Mcl-1/Akt interaction in H1299 cells; format: cell-based; details: increasing concentrations
# T1 construct: treatment of H1299 cells with increasing concentrations of PH-687; endogenous in cells; host or cells: H1299
# T1 sequence (P31749 whole entry, one chain of several): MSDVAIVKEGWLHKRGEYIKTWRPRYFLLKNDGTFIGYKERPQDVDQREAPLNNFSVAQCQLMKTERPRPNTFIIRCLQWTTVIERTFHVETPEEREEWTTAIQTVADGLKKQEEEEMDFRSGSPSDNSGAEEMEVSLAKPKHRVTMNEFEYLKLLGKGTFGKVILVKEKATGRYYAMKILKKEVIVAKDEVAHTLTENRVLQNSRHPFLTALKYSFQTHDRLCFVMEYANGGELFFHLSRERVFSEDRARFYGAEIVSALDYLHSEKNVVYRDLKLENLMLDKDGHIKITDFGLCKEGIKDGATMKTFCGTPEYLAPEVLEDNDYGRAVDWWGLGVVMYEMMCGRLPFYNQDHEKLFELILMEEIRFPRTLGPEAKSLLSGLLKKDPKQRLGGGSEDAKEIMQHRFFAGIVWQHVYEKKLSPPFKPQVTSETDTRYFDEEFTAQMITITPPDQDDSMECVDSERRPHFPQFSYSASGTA
# Experimental: To evaluate the mechanism by which Mcl-1 regulates Akt, coimmunoprecipitation (co-IP) experiments using Mcl-1 or Akt antibody were performed in H1299 parental versus H1299 Mcl-1^−/^− cells. […] Because Akt antibody could pull-down Mcl-1 protein only in H1299 parental, but not in H1299 Mcl-1^−/^− cells, this indicates a potential direct interaction between Mcl-1 and Akt in human lung cancer cells. To further verify this interaction, similar co-IP experiments were carried out in a cell-free system using purified recombinant Mcl-1 and Akt proteins. Consistently, Mcl-1 also directly interacted with Akt in the cell-free system. To detect the intracellular localization(s) of Akt/Mcl-1 interaction, a Duolink™ proximity ligation assay (PLA) system was employed to detect Akt/Mcl-1 interaction in H1299 cells and H460 cells according to the manufacturer's instructions. Two primary antibodies raised in different species (i.e., Mcl-1 antibody from rabbit and Akt antibody from mouse) are used to detect two unique protein targets. […] PLA signals were detected by fluorescence microscopy as discrete spots. […]
# To test whether PH-687 specifically binds to the PH domain in Akt, recombinant GST-tagged WT Akt, PH deletion Akt mutant (DPH), and PH domain-only proteins were generated and PH-687 compound/Akt protein binding were measured using a thermal shift assay. […]
# [4] = molecular target: T2, Akt/mTORC2 (Homo sapiens, UniProt P31749); test: interaction of Akt with mTORC2 in H1299 cells; format: cell-based
# T2 construct: endogenous in cells; host or cells: H1299
# T2 sequence (P31749 whole entry): as the sequence (P31749 whole entry, one chain of several) above
# Experimental: (§3) PIP3 directly binds to the PH domain and induces a conformational change in Akt, which enables PDK1 or mTORC2 to access and phosphorylate Akt at T308 or S473. To test whether Mcl-1, similar to PIP3, may also affect the interactions between Akt and PDK1 or mTORC2, co-IP experiments using Akt antibody were performed in H1299 parental cells or H1299 Mcl-1^−/^− cells expressing WT Mcl-1, DPEST Mcl-1 mutant, or empty vector, followed by Western blot using PDK1 or mTORC2 antibody, respectively. Results reveal that knockout of Mcl-1 disrupted Akt/PDK1 and Akt/mTORC2 interactions, and expression of WT Mcl-1, but not PEST deletion mutant, restored Akt/PDK1 and Akt/mTORC2 interactions.
# (§4) To test whether PH-687-mediated Mcl-1/Akt dissociation enhances interaction between the PH and KD domains, a mammalian two-hybrid system was employed to measure the PH/KD interaction in H1299 cells using Gal4BD-Akt KD, VP16AD-Akt PH, and pG5SEAP in the absence or presence of PH-687.
# [5] = test system: H1299 Mcl-1−/− cells; test: colony formation assay, H1299 Mcl-1−/− cells; format: cell-based, human; details: knockout of Mcl-1 by CRISPR/cas9, vs H1299 parental; 0, 0.1, 0.5, 1 mmol/L
# Experimental: (§5) To further test whether PH-687 specifically functions through targeting Mcl-1/AKT signaling in lung cancer cells, H1299 parental cells, H1299 Mcl-1^−/^− cells and H1299 cells expressing Akt siRNA were treated with increasing concentrations of PH-687 (0, 0.1, 0.5, 1 mmol/L), followed by colony formation assay.
# [6] = test system: Akt; test: Akt activity in human lung cancer cell lines; format: cell-based
# [7] = molecular target: T3, GST-tagged WT Akt (Homo sapiens, UniProt P31749); test: thermal shift assay, GST-WT Akt; format: binding; details: purified GST-WT Akt, increasing concentrations
# T3 construct: made in house
# T3 sequence (P31749 whole entry): as the sequence (P31749 whole entry, one chain of several) above
# Experimental: (§6) To test whether PH-687 specifically binds to the PH domain in Akt, recombinant GST-tagged WT Akt, PH deletion Akt mutant (DPH), and PH domain-only proteins were generated and PH-687 compound/Akt protein binding were measured using a thermal shift assay. Thermal shift assay is a technique to study protein/small-molecule interactions that enhance protein thermal stability and increase melting temperatures as described in Jin et al. Glutamate dehydrogenase 1 signals through antioxidant glutathione peroxidase 1 to regulate redox homeostasis and tumor growth. Cancer Cell, 2015, 27:257-70. […] Because PH-687 can bind to the Mcl-1-binding site (i.e., PH domain) on Akt protein, the effect of PH-687 on Mcl-1/Akt interaction was tested.
# [8] = test system: H1299 cells expressing Akt siRNA; test: colony formation assay, H1299 cells expressing Akt siRNA; format: cell-based, human; details: knockdown of Akt by Akt siRNA, vs H1299 parental; 0, 0.1, 0.5, 1 mmol/L
# Experimental: as §5
# [9] = molecular target: T4, GST-PH domain-only Akt protein (Homo sapiens, UniProt P31749); test: thermal shift assay, PH domain-only protein; format: binding; details: purified GST-PH-mutant (PH domain-only) protein, increasing concentrations
# T4 construct: PH domain-only proteins were generated; made in house
# T4 sequence (P31749 5-108 limits assumed): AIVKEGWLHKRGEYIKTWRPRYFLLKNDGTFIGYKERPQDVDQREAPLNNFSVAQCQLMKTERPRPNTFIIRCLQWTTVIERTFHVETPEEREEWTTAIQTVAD
# Experimental: as §6
# [10] = test system: GST-DPH (PH deletion Akt mutant); test: thermal shift assay, PH deletion Akt mutant; format: binding; details: GST-DPH protein, increasing concentrations
# Experimental: as §6
# [11] = test system: H1299 parental cells; test: colony formation assay, H1299 parental cells; format: cell-based, human; details: H1299 cells, 0, 0.1, 0.5, 1 mmol/L
# Experimental: as §5
# [12] = test system: Akt PH/KD interaction; test: mammalian two-hybrid system (SEAP), PH/KD interaction in H1299 cells; format: cell-based, human; details: H1299 cells, 0, 0.5, 1, 2 mmol/L, 24 hours
# Text: Because Mcl-1 can directly interact with Akt at the PH domain, experiments were designed to test whether Mcl-1 affects the intramolecular PH domain/KD interaction. GST-tagged KD, GFP-tagged PH domain, and Flag-tagged WT Mcl-1 or DPEST Mcl-1 mutant were used for co-transfection and co-IP experiments. […] To further confirm these findings, a mammalian two-hybrid system was employed to measure the PH/KD interaction. Co-transfection of Gal4BD-Akt KD and VP16AD-Akt PH along with pG5SEAP in cells drives the expression of secreted alkaline phosphatase (SEAP) when KD/PH interaction occurs. To test the effect of Mcl-1 on KD/PH interaction, the two-hybrid H1299 Mcl-1^−/^− cells were co-transfected with WT Mcl-1 or DPEST mutant Mcl-1, followed by analysis of SEAP activity. […] Because the PEST domain is required for Mcl-1/Akt binding, it is proposed that Mcl-1 disruption of intramolecular PH domain/kinase domain interactions may occur through Mcl-1/Akt binding.
# as §4
# [13] = test system: various human lung cancer cell lines (H1299, H157, H460); test: colony formation / growth in various human lung cancer cell lines; format: cell-based
# [14] = molecular target: T5, Akt/PDK1 (Homo sapiens, UniProt P31749); test: interaction of Akt with PDK1 in H1299 cells; format: cell-based
# T5 construct: endogenous in cells; host or cells: H1299
# T5 sequence (P31749 whole entry): as the sequence (P31749 whole entry, one chain of several) above
# Experimental: as §3, §4
# [15] = test system: human lung cancer cells; test: sulforhodamine B cytotoxicity screening; format: cell-based; details: sulforhodamine B assay; among the top 500 small molecules from docking
# Text: The small molecules were ranked according to their energy scores. The top 500 small molecules based on predicted binding energies were selected for screening of cytotoxicity in human lung cancer cells by sulforhodamine B assay as described in Park et al. Novel small molecule inhibitors of Bcl-XL to treat lung cancer. Cancer Res 2013;73: 5485-96.
# [16] = toxicity in xenograft-bearing mice (body weight, blood chemistry, blood counts); format: in vivo; details: 30-90 mg/kg/day
# Experimental: as §1, §2
# [17] = harvested tumor tissues after treatment
smiles,measurement,setting,value
"N=c1ccn2c(n1)OC1C(OP(=O)(O)O)C(CO)OC12 (stereo not shown) [PH-687, 2-(hydroxymethyl)-6-imino-2,3,3a,9a-tetrahydro-6H-furo[2′,3′:4,5]oxazolo[3,2-a]pyrimidin-3-yl dihydrogen phosphate]",Ki67 level in tumor tissues (IHC),[1]; [17],decreased levels
same,apoptosis (active caspase-3) in tumor tissues (IHC),[1]; [17],increased apoptosis
same,pAkt (S473) level in tumor tissues (IHC),[1]; [17],decreased levels
same,pAkt (T308) level in tumor tissues (IHC),[1]; [17],decreased levels
same,tumor growth (tumor volume),"[1]; nude mice, 0, 30, 60, 90 mg/kg/day i.p., 4 weeks",suppressed tumor growth in a dose-dependent manner; also recorded: suppresses tumor growth
same,"EGF, IGF, and insulin-induced Akt phosphorylation at S473",[2],inhibited
same,"EGF, IGF, and insulin-induced Akt phosphorylation at T308",[2],inhibited
same,dissociation of Mcl-1/Akt complexes,[3],dose-dependent dissociation of Mcl-1/Akt complexes
same,interaction of Akt with mTORC2,[4],dose dependent decreased interaction
same,inhibitory effect on cell growth (colony formation),[5],reduced the inhibitory effect
same,Akt activity,[6],significantly reduced Akt activity
same,Tm (melting temperature),[7],Dose-dependent increases in Tm
same,inhibitory effect on cell growth (colony formation),[8],reduced the inhibitory effect
same,Tm (melting temperature),[9],Dose-dependent increases in Tm
same,Tm (melting temperature),[10],no significant increase in Tm
same,cell growth (colony formation),[11],growth inhibition in a dose-dependent manner
same,PH/KD interaction,[12],increased PH/KD interaction in a dose-dependent manner
same,cell growth,[13],growth inhibition
same,interaction of Akt with PDK1,[14],dose dependent decreased interaction
same,activity against human lung cancer cells (cytotoxicity),[15],most potent activity
same,increase in alanine aminotransferase,[16],no significant increase
same,increase in aspartate aminotransferase,[16],no significant increase
same,increase in blood urea nitrogen,[16],no significant increase
same,reduction in PLT,[16],no significant
same,reduction in RBC,[16],no significant
same,reduction in WBC,[16],no significant
same,reduction in hemoglobin,[16],no significant
same,weight loss,[16],no significant weight loss
